Test results published in paper PMC9068772, “Discovery of first-in-class nanomolar inhibitors of heptosyltransferase I reveals a new aminoglycoside target and potential alternative mechanism of action” (Scientific Reports, 2022).
Converted amounts (≈) assume the structure as drawn. “And” between values parts separate entries of the source, which are not always exact repeats. Identical values can stand only once.

Legend:
[1] = target: T1, Heptosyltransferase I (HepI) WT (Escherichia coli, UniProt P24173); experiment: HepI inhibition, ADP/NADH coupled assay (wild type); type: biochemical, E. coli K12; details: for kcat: HepI WT in presence of inhibitor; for Ki: 10 μM ODLA, inhibitor varied; for Type of inhibition with ODLA: excess ADPH, ODLA varied, Lineweaver–Burk, Dixon, Cornish-Bowden; for Type of inhibition against ADPH: excess ODLA, ADPH varied; for ΔG (kcal/mol) Exp: Gibbs equation with Ki as equilibrium constant
T1 construct: made in house; host or cells: E. coli One Shot BL-21-AI
T1 sequence (P24173 whole entry): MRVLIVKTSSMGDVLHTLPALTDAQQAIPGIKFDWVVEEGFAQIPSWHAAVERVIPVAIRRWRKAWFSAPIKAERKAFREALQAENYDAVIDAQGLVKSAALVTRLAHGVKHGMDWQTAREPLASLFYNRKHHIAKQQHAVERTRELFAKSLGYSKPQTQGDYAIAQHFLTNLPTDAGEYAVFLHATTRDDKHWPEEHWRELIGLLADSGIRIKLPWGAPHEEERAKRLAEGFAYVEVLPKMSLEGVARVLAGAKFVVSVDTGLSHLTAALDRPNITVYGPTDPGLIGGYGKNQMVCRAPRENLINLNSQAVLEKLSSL
Method: (§1) As previously reported[11],[14],[15], an ADP/NADH coupled assay was used to monitor HepI activity by monitoring the absorbance change at 340 nm at 37 °C on a Cary Bio 100 UV–Vis Spectrometer. Under normal conditions, the assay buffer was composed of 50 mM HEPES, 50 mM KCl, 10 mM MgCl2, pH 7.5. The coupled enzyme reaction additionally contained 100 μM phosphoenolpyruvate, 100 μM NADH, 100 μM dithiothreitol (DTT) and 0.05 U/μL of both pyruvate kinase and lactate dehydrogenase. 100 μM ADPH was used when ODLA concentration was varied and 100 μM ODLA was used when ADPH was varied. Once a stable baseline was established (~ 5 min), the reaction was initiated by addition of HepI to a final concentration of 50 nM or 100 nM (for high and lower substrate concentrations respectively) and all reported reaction rates are after background subtraction. When running 12 samples at once, plastic cuvette stirs and a repeat pipettor was used to inject 200 μL enzyme. Inhibition of HepI was monitored using the same ADP/NADH coupled assay, all conditions of the assay were the same as previously described unless otherwise stated. Ki values for each of the compounds were determined by varying compound final concentration from 100 μm to 10 nm, and a final concentration of 10 μM ODLA. Competition assays against ADPH were done with excess ODLA (100 μM) and varying ADPH from 2–0.25 μM. Competition assays against ODLA were done with excess ADPH (100 μM) and varying ODLA from 2–0.25 μM. Reactions were started with addition of enzyme and inhibitor was varied from 30–0.01 μM. Kinetics were fit to Lineweaver-Burke (Eq. 1), competitive (Eq. 2), non-competitive (Eq. 3), mixed (Eq. 4), Dixon (Eq. 5), or Cornish-Bowden (Eq. 6) models. All fitting and plotting was done through MATLAB R2018A.1 1/V1/[S]=KM/Vmax[S]+1/Vmax 2 V[S]=Vmax[S]/KM1+[I]/Ki+[S] 3 V[S]=Vmax[S]/1+([I]/Ki)/KM+[S] 4 V[S]=Vmax[S]/KM(1+[I]/Ki)+[S](1+[I]/αKi) 5 1/V[I]=KM1+I/Ki+[S]1+I/αKi/Vmax[S] 6 [S]/V[I]=KM1+I/Ki+[S]1+I/αKi/Vmax

HepI R60A = target: T2, HepI R60A (Escherichia coli, UniProt P24173, R60A); experiment: HepI inhibition, ADP/NADH coupled assay (R60A mutant); type: biochemical, E. coli K12; details: for ΔΔG (kcal/mol) Exp: Arg60Ala relative to WT; for ΔG (kcal/mol) Exp: Arg60Ala, from Ki; for kcat: HepI R60A in presence of inhibitor
T2 construct: made in house; host or cells: E. coli One Shot BL-21-AI (stated for HepI in general)
T2 sequence (P24173 whole entry R60A): as the sequence (P24173 whole entry) above, with R60A counted along it
Method: as §1

HepI = target: T3, HepI (Escherichia coli, UniProt P24173); experiment: Circular dichroism thermal melt of HepI; type: binding, E. coli K12; details: CD melt; for Increase in unfolding compared to apo HepI: HepI plus inhibitor, no ODLA; for Difference in melting temperature of HepI•ODLA complex caused by inhibitor: destabilization of HepI•ODLA
T3 construct: made in house; host or cells: E. coli One Shot BL-21-AI
T3 sequence (P24173 whole entry): as the sequence (P24173 whole entry) above
Method: Circular dichroism melt experiments were performed in a Jasco J-810 spectropolarimeter in Starna 21-Q-2 cells (minimum volume 400 µL) sealed with Teflon tape to prevent evaporation. Parameters include 3 accumulations of data collected between 195–275 nm as a function of temperature (10–95 °C with 5° increments) at a ramp rate of 2°/min and a scanning rate of 50 nm/min. Samples were prepared by diluting a mixture of 5 μM HepI and some combination of 250 μM substrate/product and/or 100 μM inhibitor in a buffer of 10 mM Tris–HCl and 100 mM KCl (pH = 7.5). CD data was analyzed via in house script written in MATLAB R2018A that average a set of triplicate data, normalizes to a percent unfolded (assuming the protein is fully folded at 5 °C) at 222 nm as a function of temperature and fits to a sigmoid curve to determine the melt temperature (TM).

[2] = test system: LPS production in E. coli K12; experiment: LPS visualization gels of lipid extracts from growth challenge samples; type: cell-based; details: for Concentration range over which LPS production decreases: E. coli K12, lipids from 4 × 10^8 cells; for IC50: Escherichia coli, E. coli K12, silver-stained gels, inflection point of sigmoid fit, read-out: IC50 of LPS production (LPS band pixel density)
Method: (§2) The assays were prepared by plating E. coli K12 onto an LB-agar plate and grown overnight (12–18 h)[60]. A colony forming unit was chosen to inoculate 10 mL of fresh LB media in a tightly capped 15 mL falcon tube and placed in an incubator (no agitation) at 37 °C for exactly 24 h to increase the number of viable cells for inoculation of the plate and thusly reproducibility in highly variable growth patterns. A 96-well plate was then filled with a variety of inhibitor concentrations taken from stock solutions made up in ultra-pure water allowing for one row to remain free of the inhibitor. Each inhibitor concentration was given 3-wells to ensure a triplicate of data is collected at once. With the same fresh media used to make the overnight culture, the overnight growths were added to the plate in a 1:1000 dilution (total volume 200 uL) and the plate sealed with clear adhesive plastic sealant. One row has been designated for uncultured media to be used for pre-blanking measurements and to ensure that the media isn’t growing spontaneously.
(§3) As previously established, lipid extraction occurs through lysis of surface polysaccharides with a lysis buffer containing 1% SDS, 20% glycerol, 100 mM Tris–HCl and 0.04% bromophenol blue at a pH 6.8[61]. The cellular concentrations from each well were determined using the last collected OD600 corrected using Eq. (8), centrifuged and resuspended in the correct volume of lysis buffer to obtain 4 × 10^8 cells/100 µL solution. Addition of Proteinase K at 1 mg/mL concentration was incubated for 1 h at 37 °C. These samples were then loaded onto a 15% separating, 6% stacking SDS–polyacrylamide gel (recipes received from https://www.bio-rad.com/) in a 19:1 acrylamide to bis-acrylamide ratio and run with a voltage gradient from 50–150 V. The gels were then stained using the protocol described previously with no modifications[62] and imaged using a scanner.
(§4) Relative LPS band density was determined using analysis methods provided by ImageJ software. The band pixel density were analyzed relative to a purified sample of heptosylated O-deacylated Lipid A at 100 nM. The plot was generated of relative band density vs. concentration of inhibitor[63].

[3] = test system: capsular polysaccharide (cps) band of E. coli K12 total lipid extract; experiment: Capsular polysaccharide band density on silver-stained gels; type: cell-based
Method: as §2, §3, §4

SMILES | kcat [1] [s⁻¹] | Ki ([1]; HepI WT) | Type of inhibition with ODLA ([1]; HepI WT) | Type of inhibition against ADPH ([1]; HepI WT) | ΔG (kcal/mol) Exp ([1]; HepI WT) [kcal/mol] | Ki (HepI R60A) [µM] | ΔΔG (kcal/mol) Exp (HepI R60A) [kcal/mol] | ΔG (kcal/mol) Exp (HepI R60A) [kcal/mol] | kcat (HepI R60A) [s⁻¹] | Increase in unfolding compared to apo HepI (HepI) | Difference in melting temperature of HepI•ODLA complex caused by inhibitor (HepI) | Melting temperature of HepI•ODLA complex with inhibitor (HepI; inhibitor added to HepI•ODLA) | Concentration range over which LPS production decreases [2] [ng/mL] | IC50 [2] [µg/mL] | also measured
[H]/N=C(/N)N[C@H]1[C@H](O)[C@@H](O)[C@H](O[C@@H]2O[C@@H](C)[C@](O)(C=O)[C@H]2O[C@@H]2O[C@@H](CO)[C@H](O)[C@@H](O)[C@@H]2NC)[C@@H](N/C(N)=N\[H])[C@@H]1O [Streptomycin] | 0.162 ± 0.008 | 0.595 ± 0.09 µM | Non-competitive | non-competitive | -8.5 ± 0.1 | 6.25 ± 5.43 | 1.4 ± 0.4 | -7.1 ± 0.4 | 0.149 ± 0.013 | ~ 20% and 15–20% | not observed | no different from substrate or product alone | 25 to 27.5 | 0.0262 ± 0.001 (≈ 0.045 µM) | Ki relative to WT (HepI R60A; HepI R60A vs WT): increased the Ki values an order of magnitude; Relative pixel density from cps band ([3]; 12.5 ng/mL streptomycin, relative to 0 ng/mL = 1): 1.019; Relative pixel density from cps band ([3]; 15 ng/mL streptomycin): 1.115; Relative pixel density from cps band ([3]; 17.5 ng/mL streptomycin): 1.105; Relative pixel density from cps band ([3]; 20 ng/mL streptomycin): 1.323; Relative pixel density from cps band ([3]; 22.5 ng/mL streptomycin): 1.458; Relative pixel density from cps band ([3]; 25 ng/mL streptomycin): 1.335; Relative pixel density from cps band ([3]; 27.5 ng/mL streptomycin): 1.687; Relative pixel density from cps band ([3]; 30 ng/mL streptomycin): 1.477; Relative pixel density from cps band ([3]; 32.5 ng/mL streptomycin): 1.070; Relative pixel density from cps band ([3]; 35 ng/mL streptomycin): 0.654
NC[C@H]1O[C@H](O[C@H]2[C@H](O)[C@@H](O[C@H]3O[C@H](CO)[C@@H](O)[C@H](N)[C@H]3O)[C@H](N)C[C@@H]2N)[C@H](N)C[C@@H]1O [Tobramycin] | 0.15 ± 0.005 | 1.1 µM and 1.13 µM | Mixed competitive | uncompetitive | -8.1 ± 0.1 | 3.4 ± 0.631 | 0.7 ± 0.1 | -7.5 ± 0.1 | 0.111 ± 0.013 | 20% | > 30 °C | ~ 58 °C | 5 to 7 | 0.0064 ± 0.0001 (≈ 0.0137 µM) | α value, mixed model of inhibition with ODLA ([1]; HepI WT): greater than one; Melting temperature (Tm) of HepI with ligand (HepI; HepI plus ligand alone): ~ 37 °C; Melt of HepI with ADPH and inhibitor (HepI; compared with HepI with ADPH alone): no changes from HepI with ADPH alone; Extent of unfolding of HepI•ODLA complex with inhibitor (HepI; inhibitor added to HepI•ODLA): about 70%; Concentration at which no LPS is detectible ([2]; E. coli K12): ≥ 7.5 ng/mL; Relative pixel density from cps band ([3]; 4 ng/mL tobramycin, relative to 0 ng/mL = 1): 1.752; Relative pixel density from cps band ([3]; 4.5 ng/mL tobramycin): 4.293; Relative pixel density from cps band ([3]; 5 ng/mL tobramycin): 7.121; Relative pixel density from cps band ([3]; 5.5 ng/mL tobramycin): 5.786; Relative pixel density from cps band ([3]; 6 ng/mL tobramycin): 3.692; Relative pixel density from cps band ([3]; 6.5 ng/mL tobramycin): 2.319; Relative pixel density from cps band ([3]; 7 ng/mL tobramycin): 1.163; Relative pixel density from cps band ([3]; 7.5 ng/mL tobramycin): 1.421; Relative pixel density from cps band ([3]; 8 ng/mL tobramycin): 1.641; Relative pixel density from cps band ([3]; 9 ng/mL tobramycin): 1.606
